Experimental data: the supplement of paper PMC10307832

Columns and labels:
Assay in all cases: relative viability (nuclei count vs DMSO), 5 days (fraction); higher = more cells survive
Pictilisib + Tozasertib = compound: CS(=O)(=O)N1CCN(Cc2cc3nc(-c4cccc5[nH]ncc45)nc(N4CCOCC4)c3s2)CC1 [Pictilisib] + Cc1cc(Nc2cc(N3CCN(C)CC3)nc(Sc3ccc(NC(=O)C4CC4)cc3)n2)n[nH]1 [Tozasertib] (partner 0.1 µM)
How it was run: (§1)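 Cells from lung cancer lines were seeded into 1536-well plates and, one day later, dosed by pin tool. Treatments were either a single drug or a fixed dose of an anchor drug with five library-drug doses (not always all listed) in √10 steps. After 5 days, nuclei were stained in a one-step fixation (final 0.05% Triton X-100, 1% formaldehyde, 1 ug/ml Hoechst) and counted on 4× images, and relative viability is the treated-to-vehicle nuclei ratio, as the median of duplicate plates.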

MK-2206 + Foretinib = compound: NC1(c2ccc(-c3nc4ccn5c(=O)[nH]nc5c4cc3-c3ccccc3)cc2)CCC1 [MK-2206] + COc1cc2c(Oc3ccc(NC(=O)C4(C(=O)Nc5ccc(F)cc5)CC4)cc3F)ccnc2cc1OCCCN1CCOCC1 [Foretinib] (partner 0.25 µM)
How it was run: as §1

MK-2206 + Pictilisib = compound: NC1(c2ccc(-c3nc4ccn5c(=O)[nH]nc5c4cc3-c3ccccc3)cc2)CCC1 [MK-2206] + CS(=O)(=O)N1CCN(Cc2cc3nc(-c4cccc5[nH]ncc45)nc(N4CCOCC4)c3s2)CC1 [Pictilisib] (partner 1 µM)
How it was run: as §1

MK-2206 + Vorinostat = compound: NC1(c2ccc(-c3nc4ccn5c(=O)[nH]nc5c4cc3-c3ccccc3)cc2)CCC1 [MK-2206] + O=C(CCCCCCC(=O)Nc1ccccc1)NO [Vorinostat] (partner 1 µM)
How it was run: as §1

MK-2206 + Olaparib = compound: NC1(c2ccc(-c3nc4ccn5c(=O)[nH]nc5c4cc3-c3ccccc3)cc2)CCC1 [MK-2206] + O=C(c1cc(Cc2n[nH]c(=O)c3ccccc23)ccc1F)N1CCN(C(=O)C2CC2)CC1 [Olaparib] (partner 8 µM)
How it was run: as §1

UMC-11
relative viability (Pictilisib + Tozasertib; first compound 0.02 µM): 0.202 | relative viability (Pictilisib + Tozasertib; first compound 0.06325 µM): 0.192 | relative viability (Pictilisib + Tozasertib; first compound 0.6325 µM): 0.2 | relative viability (Pictilisib + Tozasertib; first compound 2 µM): 0.216 | relative viability (MK-2206 + Foretinib; first compound 0.01 µM): 1.08 | relative viability (MK-2206 + Foretinib; first compound 0.03162 µM): 1.1 | relative viability (MK-2206 + Foretinib; first compound 0.3162 µM): 1.16 | relative viability (MK-2206 + Foretinib; first compound 1 µM): 1.05 | relative viability (MK-2206 + Pictilisib; first compound 0.01 µM): 0.762 | relative viability (MK-2206 + Pictilisib; first compound 0.03162 µM): 0.821 | relative viability (MK-2206 + Pictilisib; first compound 0.3162 µM): 0.837 | relative viability (MK-2206 + Pictilisib; first compound 1 µM): 0.616 | relative viability (MK-2206 + Vorinostat; first compound 0.01 µM): 0.388 | relative viability (MK-2206 + Vorinostat; first compound 0.03162 µM): 0.365 | relative viability (MK-2206 + Vorinostat; first compound 0.3162 µM): 0.416 | relative viability (MK-2206 + Vorinostat; first compound 1 µM): 0.379 | relative viability (MK-2206 + Olaparib; first compound 0.01 µM): 0.52 | relative viability (MK-2206 + Olaparib; first compound 0.03162 µM): 1.16 | relative viability (MK-2206 + Olaparib; first compound 0.3162 µM): 0.381 | relative viability (MK-2206 + Olaparib; first compound 1 µM): 0.363
